Experimental data taken from ChEMBL document CHEMBL1144299, “Quinazolinethiones and quinazolinediones, novel inhibitors of inosine monophosphate dehydrogenase: synthesis and initial structure-activity relationships” (Bioorg Med Chem Lett, 2005).

Columns and labels:
[1] = molecular target: Inosine-5'-monophosphate dehydrogenase 2 (Homo sapiens, UniProt P12268); assay: In vitro inhibitory concentration against inosine-5'-monophosphate dehydrogenase
[2] = In vitro concentration required to inhibit peripheral blood mononuclear cell proliferation was determined; type: functional
[3] = In vitro concentration required to inhibit peripheral blood mononuclear cell proliferation; Inactive; type: functional
[4] = Percent inhibition of inosine-5'-monophosphate dehydrogenase was determined at 1 uM concentration; type: functional

SMILES: COc1cc2[nH]c(=S)n(-c3cccnc3)c(=O)c2cc1-c1cnco1
- IC50 [1]: 1710 nM

SMILES: COc1cc2[nH]c(=S)n(CCc3ccncc3)c(=O)c2cc1-c1cnco1
- IC50 [1]: 13 nM
- IC50 [2]: 780 nM

SMILES: COc1cc2[nH]c(=O)n(CCc3c[nH]cn3)c(=O)c2cc1-c1cnco1
- IC50 [3]: Not Active
- IC50 [1]: 47 nM

SMILES: COc1cc2[nH]c(=O)n(CCc3ccncc3)c(=O)c2cc1-c1cnco1
- IC50 [1]: 188 nM
- IC50 [2]: 1200 nM

SMILES: COc1cc2nc(S)nc(O)c2cc1-c1cnco1
- IC50 [1]: 30 nM

SMILES: COc1cc2[nH]c(=S)n(CCc3ccccn3)c(=O)c2cc1-c1cnco1
- IC50 [1]: 91 nM
- IC50 [2]: 1000 nM

SMILES: COc1cc2[nH]c(=O)n(CCN3CCOCC3)c(=O)c2cc1-c1cnco1
- IC50 [1]: 297 nM
- IC50 [2]: 9130 nM

SMILES: COc1cc2[nH]c(=S)n(Cc3ccncc3)c(=O)c2cc1-c1cnco1
- IC50 [1]: 100 nM
- IC50 [2]: 4100 nM

SMILES: COc1cc2[nH]c(=S)n(C)c(=O)c2cc1-c1cnco1
- IC50 [1]: 17 nM
- IC50 [2]: 1100 nM

SMILES: COc1cc2[nH]c(=S)n(CCCn3ccnc3)c(=O)c2cc1-c1cnco1
- IC50 [1]: 22 nM
- IC50 [2]: 980 nM

SMILES: COc1cc2[nH]c(=S)n(CCN3CCOCC3)c(=O)c2cc1-c1cnco1
- IC50 [1]: 71 nM
- IC50 [2]: 2760 nM

SMILES: COc1cc2[nH]c(=O)n(CCn3ccnc3)c(=O)c2cc1-c1cnco1
- IC50 [1]: 86 nM
- IC50 [2]: 2400 nM

SMILES: COc1cc2[nH]c(=S)n(C(C)C)c(=O)c2cc1-c1cnco1
- inhibition [4]: 27%

SMILES: COc1cc2[nH]c(=O)n(C)c(=O)c2cc1-c1cnco1
- IC50 [1]: 104 nM
- IC50 [2]: 4000 nM

SMILES: COc1cc2[nH]c(=S)n(CC(C)(C)C)c(=O)c2cc1-c1cnco1
- IC50 [1]: 821 nM
